From ChEMBL document CHEMBL1157539, “Thousands of chemical starting points for antimalarial lead identification” (Nature, 2010) come the findings set out here.

The test relates to Plasmodium falciparum. The experiment in a line: GSK_TCMDC: Inhibition of Plasmodium falciparum 3D7 in whole erythrocytes, using parasite LDH activity as an index of growth. Format: functional, organism-based. Conditions: Plasmodium falciparum, 3D7.
As for `O=c1c2ccccc2nc(/C=C/c2ccc([N+](=O)[O-])cc2)n1-c1ccccn1`, the XC50 turned out to be 382 nM. Next, `O=C(/C=C/c1cc([N+](=O)[O-])ccc1Cl)NC1CCC(CN2CCC(c3c[nH]c4ccccc34)CC2)CC1` (stereo not given): 740 nM; `CN1CCC(N(Cc2ccc(-c3ccc(C(F)(F)F)cc3)cc2)C(=O)Cn2cc(Cc3cnn(C)c3)c(=O)nc2SCc2cccc(F)c2F)CC1`: 933 nM.

The compound `CC(C)(CN1CCCC1)CN(Cc1ccc(-c2ccc(C(F)(F)F)cc2)cc1)C(=O)Cn1c(CCc2cccc(F)c2F)nc(=O)c2ccccc21` gave an XC50 of 790 nM.

Take `CCNc1cc(C(=O)N[C@@H](Cc2ccccc2)[C@H](O)CN[C@@H]2CCc3ccccc32)cc(N2CCCC2=O)c1`: the XC50 was 1020 nM.

Compound `Cc1nc(O)c2c(ccc3ccc(CNc4ccc(C(=O)N[C@@H](CCC(=O)O)C(=O)O)c(F)c4)cc32)n1` displayed an XC50 of 402 nM. `Cc1ccc(Nc2ccnc(Nc3ccc4c(c3)CS(=O)(=O)C4)n2)cc1O`: the XC50 is 725 nM. Next, `O=C(Nc1cccnc1)c1ccc(-c2cc3ccncc3cc2OC2CCNCC2)s1`: 884 nM; `O=C1CCCN1CCCNCc1cccc(-c2ccc(-c3nc4cc(C(F)(F)F)ccc4[nH]3)s2)c1`: 448 nM. The value for `COc1cc(NC(=O)N2CCOC(CCN3CCC(c4ccccc4)CC3)(c3ccc(Cl)c(Cl)c3)C2)cc(OC)c1` (stereo not given) was 287 nM; that for `COc1ccc(-c2ccc(NC(=O)c3ccc(Cl)cc3)cc2)cc1CN1CCNCC1` was 129 nM. Regarding `O=C(OCc1ccccn1)c1nc2ccccc2[nH]1`, the XC50 worked out at 793 nM. Next, `Cc1cc(F)ccc1[C@H]1CNCCN1C(=O)N(C)C(C)(C)c1cc(C(F)(F)F)cc(C(F)(F)F)c1`: 594 nM; `CCc1c(CCNCCCCCCNCCc2ccc(OC)c(OC)c2CC)ccc(OC)c1OC`: 735 nM.

Compound `O=C(/C=C/c1cccs1)NC1CCC(CN2CCC(c3c[nH]c4ccccc34)CC2)CC1` (stereo not given) yielded an XC50 of 1050 nM. Take `O=C(Nc1cccc(CN2CCCN(Cc3ccc(O)cc3)CC2)c1)c1cc2ccccc2o1`: the XC50 was 1200 nM. Next, `N#Cc1cccc(Nc2ncc3c(-c4cccc(NC(=O)Cc5cccc(Cl)c5)c4)c[nH]c3n2)c1`: 423 nM; `COc1ccccc1/C=C/C(=O)NC1CCC(CCN2CCc3ccc(-c4cc(C)no4)cc3CC2)CC1` (stereo not given): 961 nM.

With `O=C(N[C@@H](Cc1ccccc1)C(=O)NC1CCCCC1)c1ccc(O)c(-c2ccc(Cl)c(Cl)c2)c1`, the XC50 was found to be 231 nM. Next, `CC1(C)NC(N)=NC(=N)N1OCCOc1ccc2ccccc2c1`: 3.2 nM; `CC[C@H]1CN2CC[C@@H]1C[C@H]2[C@H](O)c1cc(-c2c(C)noc2C)nc2ccc(OC)cc12`: 33 nM. The value for `CCOc1cc(C(=O)Nc2ccc3nc(N(CC)CC)cc(C)c3c2)cc(OCC)c1OCC` was 696 nM; that for `Clc1ccc(OCc2ccccc2)c(-c2nc(-c3nc4ccc(Cl)cc4[nH]3)cs2)c1` was 670 nM; that for `CN1CCCc2ccc(NC(=O)Nc3ccc(Cl)c(Cl)c3)cc2C1` was 603 nM. Next, `CC(Oc1ccc(Cl)cc1Cl)c1nc(-c2ccc(NC(=O)c3ccco3)cc2)no1` (stereo not given): 905 nM; `N#Cc1ccc(N2CCN(Cc3cccc(-c4ccc(-c5nc6cc(C(F)(F)F)ccc6[nH]5)cc4)c3)CC2)nc1`: 702 nM; `Cc1cc(N[C@@H](Cc2ccccc2)C(=O)NCc2cccc(F)c2)nc(NCCc2ccc(F)cc2)n1`: 649 nM. The compound `Nc1nc(O)c2cc(CN(C=O)c3ccc(C(=O)N[C@@H](CCC(=O)O)C(=O)O)cc3)ccc2n1` showed an XC50 of 179 nM. The value for `COc1nc(Nc2cccc(C)c2)nc(OC)n1` was 1010 nM; that for `Cc1ccccc1OCCCON1C(=N)N=C(N)NC1(C)C` was 3.2 nM; that for `CCC1(c2ccccc2)N=C(N)N(CCCc2ccccc2)C1=O` (stereo not given) was 891 nM. The value for `O=C(Nc1cc(F)c(F)c(-c2cccnc2)c1)N1CCc2cc(Cl)c(Cl)cc21` was 844 nM; that for `CC(C)COc1ccc(Cl)cc1Cc1nc(-c2nc3cccc(CN4CCN(C)CC4)c3[nH]2)cs1` was 1330 nM. Next, `COc1cc(NCCCNC(=O)c2cc3c(Cl)cc(Cl)cc3[nH]2)nc2ccccc12`: 144 nM. For the compound `Clc1ccc(CNc2nc(NCCc3c[nH]cn3)nc(Nc3ccc4c(c3)OCO4)n2)cc1`, the XC50 came to 955 nM. The value for `O=C(NCCCN1CCCC1=O)NCc1ccccc1` was 816 nM.

`COc1cc(NCCCNCC2c3ccccc3Oc3ccccc32)nc2ccccc12` gave an XC50 of 331 nM.

Take `COc1cccc(CC(=O)NC2CCN(c3ccnc4cc(Cl)ccc34)C2)c1` (stereo not given): the XC50 is 704 nM. For the compound `CCc1cc2c(O)c([N+](=O)[O-])c(=O)oc2cc1OCCCCCOc1cc2oc(=O)c([N+](=O)[O-])c(O)c2cc1CC`, the XC50 turned out to be 257 nM. Next, `COc1ccc(-c2ccc(NC(=O)c3ccc(F)cc3)cc2)cc1CN1CCCN(C)CC1`: 663 nM; `CCCC(C)NC(=O)[C@H](Cc1ccccc1)NC(=O)c1ccc(O)c(-c2ccc(OC)cc2)c1` (stereo not given in full): 1240 nM. Next, `O=c1cc(NCCCNCc2ccc(Cl)c(Cl)c2)[nH]c2cc(Cl)ccc12`: 925 nM; `COc1ccc(C2CC(=O)C3=C(C2)NC(C)=C(C(=O)OC(C)C)C3c2ccccc2F)cc1OC` (stereo not given): 61.6 nM. The value for `Cc1cc(NCCc2ccccc2)nc(NC(=N)Nc2cccc(F)c2)n1` was 899 nM.

`Fc1cc(Cl)ccc1Nc1ccnc2cc(-c3ccc(CN4CCNCC4)o3)ccc12`: the XC50 amounted to 277 nM. Compound `COc1nc2c(CCN3CCC(NCc4ccc5c(c4)NC(=O)CO5)CC3)c(Cl)cnc2cc1F` came in with an XC50 of 771 nM. Next, `CCN1CCN(c2cc(C)c3cc(NC(=O)c4ccc([N+](=O)[O-])c(C)c4)ccc3n2)CC1`: 654 nM; `COc1ccc(CN2CCC(N3CCc4cc(NC(=O)c5cc(C)on5)ccc43)C2)cc1Cl` (stereo not given): 939 nM. In turn, `COc1ccc(Nc2nccc(NCC(O)c3ccc(C(F)(F)F)cc3)n2)cc1` (stereo not given) displayed an XC50 of 545 nM. Next, `COCCNCc1nc(-c2ccc3c(Nc4ccc(F)c(O)c4)ccnc3c2)cs1`: 695 nM; `COC(=O)Cc1ccc(N)c2ccccc12`: 702 nM.

Turning to `CCOc1ccccc1CNc1nccc(NCc2ccc(Cl)cc2Cl)n1`, the XC50 was determined as 1100 nM. Next, `COc1ccc2c(NN=Cc3ccccc3)ccnc2c1`: 130 nM; `OCCN1CCN(c2nc(Nc3cccc(F)c3)c3cnn(-c4ccccc4)c3n2)CC1`: 828 nM. The value for `Cc1ccc(-c2nnc(Nc3ccc(OCC(N)=O)cc3)c3ccccc23)cc1S(=O)(=O)NCC1CCCO1` (stereo not given) was 753 nM; that for `CCCCCN1CCCCC(NS(=O)(=O)c2ccc(C(=O)Nc3cccc(C(F)(F)F)c3)cc2)C1` (stereo not given) was 750 nM. Next, `Cc1cc(N[C@@H](Cc2ccccc2)C(=O)NCc2cccs2)nc(NCC2CCCCC2)n1`: 988 nM.

Compound `CC(C)NCc1ccc(-c2ccc(NC(=O)c3ccc(Cl)cc3)cc2)cc1` registered an XC50 of 910 nM.

On to `CC(C)(C)c1ccc2[nH]c(-c3ccc(/C=C/C(=O)NC4CCN(Cc5ccccc5)CC4)cc3)nc2c1`, for which the XC50 amounted to 589 nM. As to `CCNC(=O)c1cc(S(=O)(=O)N2CCN(c3ccccn3)CC2)cs1`, the XC50 came to 866 nM. Next, `CC(C)(Cc1ccc(Cl)cc1)NCCCCCCNCCc1ccc(O)c(O)c1`: 1200 nM; `Fc1cccc2sc(Nc3nc(-c4ccccn4)cs3)nc12`: 906 nM. The value for `CCNc1cc(C(=O)N[C@@H](Cc2ccccc2)[C@H](O)CNC(C)(C)Cc2cccc(OC)c2)cc(N2CCCC2=O)c1` was 707 nM. Next, `CCc1ccc(NC(=O)c2ccc(CN3CCCN(Cc4cccs4)CC3)cc2)cc1`: 827 nM; `COc1cccc(CN2CCC3(CC2)CN(C(=O)Nc2ccc(Cl)c(Cl)c2)C3)c1`: 752 nM; `CCOC(=O)c1ccc(NC(=O)Nc2cccc(-c3ccc(-c4nc5cc(F)ccc5[nH]4)cc3)c2)cc1`: 94.5 nM. In turn, `Cc1cc(Nc2ncc(Cl)c(Nc3ccccc3C(N)=O)n2)n[nH]1` returned an XC50 of 811 nM. Next, `CCCCCN1CCCN(Cc2cccc(NC(=O)c3ccc(Cl)c(Cl)c3)c2)CC1`: 927 nM.

On to `C=CCOC(=O)O[C@@H]1[C@@H](OC(=O)OCC=C)[C@@H](OC)O[C@H](COC(c2ccccc2)(c2ccccc2)c2ccccc2)[C@H]1OC(=O)OCC=C`, for which the XC50 is 887 nM. Next, `CCOC(=O)N1NC(=O)N(c2ccccc2)C1(c1ccccc1)c1ccccc1`: 697 nM. The compound `CCOc1ccc(C2CCN(CCN3CCC(NC(=O)c4ccc(-c5ccc(C(F)(F)F)cc5)cc4)CC3)CC2)c(OCC2CC2)c1` came in with an XC50 of 826 nM. Next, `Brc1ccccc1CNc1ccnc(NCCn2ccnc2)n1`: 900 nM; `Nc1nc(N)c2cc(C#Cc3ccc(-c4ccccc4)cc3)ccc2n1`: 810 nM. The value for `NC(=O)c1cccc(Nc2nccc(Nc3ccc4[nH]c(-c5ccccc5)cc4c3)n2)c1` was 776 nM; that for `CN1CCC(C(=O)Nc2ccc(-c3cccc(-c4nc5cc(C(F)(F)F)ccc5[nH]4)c3)cc2)CC1` was 577 nM; that for `CC(=O)c1ccc2c(c1)CCN(CCC1CCC(NC(=O)c3cc4ccccc4[nH]3)CC1)CC2` (stereo not given) was 982 nM. For `CN(C(=O)c1cc2c(-c3cncnc3)cccc2[nH]1)c1ccccc1`, the XC50 was 628 nM. Next, `C=CCOc1ccc(Cc2cnc(N)nc2N)cc1CCC`: 1020 nM; `CN(C(=O)OCc1ccccc1)C1CCC(CCN2CCC3(CC2)C(=O)NCN3c2cccc(C(F)(F)F)c2)(c2ccccc2)CC1` (stereo not given): 1180 nM; `CN1CCC(NCc2cccc(-c3cccc(S(=O)(=O)NCc4ccccc4)c3)c2)CC1`: 749 nM. Next, `C=C(C)CSc1nc2c(c(=O)n1CCc1ccccc1)C1(CCCC1)Cc1ccccc1-2`: 607 nM. Next, `CC(C)CCN1CCC(Oc2ccc(NC(=O)c3cccs3)cc2Cl)C1` (stereo not given): 1100 nM.

As to `Cc1c(Cl)ccc2sc(N3CCN(C(=O)c4ccc([N+](=O)[O-])o4)CC3)nc12`, the XC50 stood at 745 nM. Next, `CCc1ccccc1N1CCN(CCCC(=O)c2ccc(NC(=O)c3cc(Cl)cc(Cl)c3)cc2)CC1`: 290 nM; `CS(=O)(=O)Nc1ccc2[nH]cc(C3CCN(CC4CCN(C(=O)/C=C/c5ccc(Cl)c(Cl)c5)CC4)CC3)c2c1`: 716 nM.
